Our source for the IC50 and EC50 values is US10981932B2, “Macrocyclic indole derivatives” (Bayer Aktiengesellschaft, priority 2016, dated 2021).

Where two headings read alike, the source gives them in different places.

A word on the EC50: it is the concentration that produces a half-maximal response. Read a low EC50 as an effect from little substance.

In one data set the test system is A2780. The data set can be described thus: Anti-proliferative effect (CellTiter-Glo, 72 h), A2780. The format is cell-based. The following applies: A2780 cells, median, read-out: IC50 antiproliferation assay A2780 [M] (median). The essentials:
(§1)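 CTG luminescence read-out after 72 h compound exposure, 37 °C, humidified. Time-zero reference plate read at plating.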
A general note: Cellular ATP, detected with luciferase, serves as a proxy for viable cell number.

The subject of data set [1] is SUDHL5. The data set can be described thus: Anti-proliferative effect (CellTiter-Glo, 72 h), SUDHL5. The format is cell-based. As to conditions: SUDHL5 cells, antiproliferation, 72 h incubation, median, read-out: Antiproli SUDHL5 [M] (median). The essentials: as §1
The test system of data set [2] is SUDHL5. The data set is described as follows: Induction of caspase-3/7 activity (Caspase-Glo 3/7), SUDHL5. The format is cell-based. The following applies: caspase-3/7 induction, SUDHL5 cells, 3 h treatment; median. The method in brief:
(§2)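 Caspase-Glo 3/7 luminescence, 3 h compound exposure, 37 °C, humidified. Minus medium-only blank. EC50 fit: C0=1, plateau = reference max induction.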

In a further data set the test system is MV-4-11. The data set can be described thus: Anti-proliferative effect (CellTiter-Glo, 72 h), MV-4-11. The format is cell-based. As to conditions: MV-4-11 cells, median, read-out: IC50 antiproliferation assay MV-4-11 [M] (median). The essentials:
as §1

In data set [3] the test system is SUDHL10. The data set is described as follows: Induction of cytotoxicity (CellTiter-Glo, 5 h), SUDHL10.
The target in another data set is MCL-1 (Homo sapiens, UniProt Q07820). The data set is described as follows: Protein-protein interaction assay MCL-1/Noxa BH3 peptide (MCL-1 assay), TR-FRET. The format is binding. As to conditions: MBP-MCL-1 / Noxa BH3-derived peptide, median. The essentials:
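Displacement of the biotinylated Noxa BH3 peptide from MBP-tagged human MCL-1 (1 nM) is detected by time-resolved FRET. Compounds are tested in duplicate across eleven concentrations up to 20 μM, incubated 1 h at 22 °C and overnight at 4 °C, and IC50 is fitted with a four-parameter equation.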
For orientation: Time-resolved FRET reads energy transfer from a long-lived donor to a nearby acceptor.

Data set [4] deals with SUDHL5. The data set is described as follows: Induction of cytotoxicity (CellTiter-Glo, 5 h), SUDHL5. The following applies: read-out: Cytotox SUDHL5 [M] (median); SUDHL5 cells, cytotoxicity induction, CellTiter-Glo, 5 h incubation, median.
Data set [5] deals with SUDHL10. The data set can be described thus: Induction of caspase-3/7 activity (Caspase-Glo 3/7), SUDHL10. As to conditions: caspase-3/7 induction, SUDHL10 cells, 3 h treatment, median. The format is cell-based. The method in brief:
as §2

The mark [6] stands for this setting: Homo sapiens, SU-DHL10, 5 h, read-out: Cytotox SUDHL10 [M] (median), SUDHL10 cells, cytotoxicity induction, CellTiter-Glo, 5 h incubation, median.
[7] abbreviates: read-out: Cytotox SUDHL10 [M] (median), SUDHL10 cells, cytotoxicity induction, CellTiter-Glo, 5 h incubation, median.

Chain of MCL-1 (Q07820 whole entry): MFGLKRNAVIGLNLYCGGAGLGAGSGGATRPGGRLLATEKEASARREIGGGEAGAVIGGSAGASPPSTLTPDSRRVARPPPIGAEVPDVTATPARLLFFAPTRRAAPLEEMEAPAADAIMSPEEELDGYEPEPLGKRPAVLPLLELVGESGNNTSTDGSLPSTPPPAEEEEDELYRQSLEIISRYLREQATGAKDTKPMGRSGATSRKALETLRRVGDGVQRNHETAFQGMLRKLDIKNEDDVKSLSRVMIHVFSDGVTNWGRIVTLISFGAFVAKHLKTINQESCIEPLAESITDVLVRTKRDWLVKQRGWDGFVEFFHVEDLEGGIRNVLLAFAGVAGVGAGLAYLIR

For the molecule `CN1CCCCn2c(C(=O)O)c(CCCOc3cccc4ccccc34)c3cccc(c32)-c2c(CC(F)(F)F)nn(C)c2C1` (single isomer, unassigned) [Example 223, 1,14-dimethyl-7-[3-(naphthalen-1-yloxy)propyl]-3-(2,2,2-trifluoroethyl)-10,11,12,13,14,15-hexahydro-1H-pyrazolo[3′,4′:8,9][1,6]diazacycloundecino[10,11,1-hi]indole-8-carboxylic Acid], the IC50 in the data set with A2780 is over 3.3e-05 M; in the data set on SUDHL5 [1] (Homo sapiens, SU-DHL-5, 72 h), 9.92e-06 M; in the data set on MV-4-11 (Homo sapiens, MV4-11, 72 h), 1.79e-05 M; in the data set on SUDHL10 [3] (setting [6]), 2.88e-05 M; in the data set on SUDHL10 [3] (setting [7]), over 3.3e-05 M; against MCL-1, 0.00424 µM. Moreover, the IC50 with SUDHL5 [4] was 8.33e-06 M. Besides, the EC50 amounted to 6.96 µM in the data set with SUDHL5 [2] and 26.2 µM in the data set with SUDHL10 [5] (Homo sapiens, SU-DHL10, 3 h).

Consider `CN1CCCCn2c(C(=O)O)c(CCCOc3cccc4ccccc34)c3cccc(c32)-c2c(CC(F)(F)F)nn(C)c2C1` (single isomer, unassigned) [Example 224, 1,14-dimethyl-7-[3-(naphthalen-1-yloxy)propyl]-3-(2,2,2-trifluoroethyl)-10,11,12,13,14,15-hexahydro-1H-pyrazolo[3′,4′:8,9][1,6]diazacycloundecino[10,11,1-hi]indole-8-carboxylic Acid], for which the IC50 is 1.45e-05 M in the data set with A2780; 6.03e-06 M in the data set with SUDHL5 [1]; 1.22e-05 M in the data set with MV-4-11; 3.2e-05 M in the data set with SUDHL10 [3] (setting [7]); 0.395 µM against MCL-1; over 3.3e-05 M in the data set with SUDHL5 [4]. For the same molecule, the EC50 with SUDHL5 [2] and with SUDHL10 [5] was over 33 µM each time.

With `CN1CCCCn2c(C(=O)O)c(CCCOc3cccc4ccccc34)c3cccc(c32)-c2c(/C=C/F)nn(C)c2C1` (single isomer, unassigned) [Example 226, 3-[(E)-2-fluoroethenyl]-1,14-dimethyl-7-[3-(naphthalen-1-yloxy)propyl]-10,11,12,13,14,15-hexahydro-1H-pyrazolo[3′,4′:8,9][1,6]diazacycloundecino[10,11,1-hi]indole-8-carboxylic Acid], the IC50 in the data set with A2780 (Homo sapiens, A2780, 72 h) was over 3.3e-05 M; with SUDHL5 [1] it was 3.15e-06 M; in the data set with MV-4-11 (Homo sapiens, MV4-11, 72 h), 2.09e-05 M; in the data set with SUDHL10 [3] (setting [6]) it was 3.04e-05 M; against MCL-1 it was 0.00302 µM; in the data set on SUDHL5 [4], 3.41e-06 M. The values for the EC50 with SUDHL5 [2] and in the data set on SUDHL10 [5] were 3.15 µM and 14.2 µM, respectively.

`CN1CCCCn2c(C(=O)O)c(CCCOc3cccc4ccccc34)c3cccc(c32)-c2c(/C=C/F)nn(C)c2C1` (single isomer, unassigned) [Example 227, 3-[(E)-2-fluoroethenyl]-1,14-dimethyl-7-[3-(naphthalen-1-yloxy)propyl]-10,11,12,13,14,15-hexahydro-1H-pyrazolo[3′,4′:8,9][1,6]diazacycloundecino[10,11,1-hi]indole-8-carboxylic Acid]: the IC50 in the data set on A2780 was 1.65e-05 M; with SUDHL5 [1], 8.96e-06 M; in the data set on MV-4-11, 1.66e-05 M; in the data set with SUDHL10 [3] (setting [7]) it was over 3.3e-05 M; at MCL-1, 0.0909 µM; with SUDHL5 [4] it was over 3.3e-05 M. For the same molecule, the 50% effective concentration (EC50) in the data set on SUDHL5 [2] and in the data set with SUDHL10 [5] was over 33 µM in each case.

Regarding `Cn1nc2c(c1OC(F)F)-c1cccc3c(CCCOc4cccc5ccccc45)c(C(=O)O)n(c13)CCCCOC2` (single isomer, unassigned) [Example 235, (−)-3-(difluoromethoxy)-2-methyl-7-[3-(naphthalen-1-yloxy)propyl]-2,10,11,12,13,15-hexahydropyrazolo[4′,3′:9,10][1,6]oxazacycloundecino[8,7,6-hi]indole-8-carboxylic Acid], the IC50 was 1.8e-05 M in the data set on A2780 (Homo sapiens, A2780, 72 h); 1.22e-05 M with SUDHL5 [1] (Homo sapiens, SU-DHL-5, 72 h); 2.07e-05 M with MV-4-11 (Homo sapiens, MV4-11, 72 h); over 3.3e-05 M in the data set on SUDHL10 [3] (setting [6]); 0.0779 µM at MCL-1; over 3.3e-05 M with SUDHL5 [4]. For the same molecule, the EC50 was over 33 µM in the data set on SUDHL5 [2] and over 33 µM in the data set with SUDHL10 [5] (Homo sapiens, SU-DHL10, 3 h).

With `Cn1nc2c(c1OC(F)F)-c1cccc3c(CCCOc4cccc5ccccc45)c(C(=O)O)n(c13)CCCCOC2` (single isomer, unassigned) [Example 236, (+)-3-(difluoromethoxy)-2-methyl-7-[3-(naphthalen-1-yloxy)propyl]-2,10,11,12,13,15-hexahydropyrazolo[4′,3′:9,10][1,6]oxazacycloundecino[8,7,6-hi]indole-8-carboxylic Acid], the IC50 in the data set with A2780 is 2.6e-05 M; in the data set with SUDHL5 [1], 9.48e-06 M; with MV-4-11, 2.19e-05 M; in the data set with SUDHL10 [3] (setting [7]) it was 2.52e-05 M; against MCL-1, 0.00678 µM; with SUDHL5 [4], 1.06e-05 M. The EC50 with SUDHL5 [2] turned out to be 11.2 µM; in the data set on SUDHL10 [5] it was 25.1 µM.

Consider `O=C(O)c1c(CCCOc2cccc3ccccc23)c2cccc3c2n1CCCCOCc1nn2c(c1-3)CCCC2` (single isomer, unassigned) [Example 254, 1-[3-(naphthalen-1-yloxy)propyl]-4,5,6,7,12,13,14,15-octahydro-9H-pyrido[1″,2″:1′,5′]pyrazolo[4′,3′:9,10][1,6]oxazacycloundecino[8,7,6-hi]indole-2-carboxylic Acid], for which the IC50 is 2.25e-05 M in the data set on A2780; over 3.3e-05 M in the data set on A2780 (Homo sapiens, A2780, 72 h); 2.32e-06 M in the data set with SUDHL5 [1]; 8.59e-06 M in the data set with MV-4-11 (Homo sapiens, MV4-11, 72 h); 8.11e-06 M with SUDHL10 [3] (setting [7]); 0.00214 µM at MCL-1. Further, the IC50 in the data set with SUDHL5 [4] was determined as 3.21e-06 M. Moreover, the EC50 turned out to be 3.01 µM in the data set with SUDHL5 [2] and 7.24 µM in the data set on SUDHL10 [5].

As for `O=C(O)c1c(CCCOc2cccc3ccccc23)c2cccc3c2n1CCCCOCc1nn2c(c1-3)CCCC2` (single isomer, unassigned) [Example 255, 1-[3-(naphthalen-1-yloxy)propyl]-4,5,6,7,12,13,14,15-octahydro-9H-pyrido[1″,2″:1′,5′]pyrazolo[4′,3′:9,10][1,6]oxazacycloundecino[8,7,6-hi]indole-2-carboxylic Acid], the IC50 with A2780 was 2.48e-05 M; in the data set with SUDHL5 [1], 1.39e-05 M; with MV-4-11, 1.31e-05 M; with SUDHL10 [3] (setting [7]), 3.28e-05 M; against MCL-1, 0.067 µM; with SUDHL5 [4], over 3.3e-05 M. The EC50 in the data set on SUDHL5 [2] and in the data set with SUDHL10 [5] was over 33 µM throughout.

As for `Cc1ccc2c(C(C)CCOc3cccc4ccccc34)c(C(=O)O)n3c2c1-c1c(C)nn(C)c1COCCCC3` (single isomer, unassigned) [Example 260, 1,3,4-trimethyl-7-[4-(naphthalen-1-yloxy)butan-2-yl]-1,10,11,12,13,15-hexahydropyrazolo[4′3′:9,10][1,6]oxazacycloundecino[8,7,6-hi]indole-8-carboxylic Acid], the IC50 came out at 2.2e-05 M with A2780; 3.61e-06 M in the data set with SUDHL5 [1]; 4.35e-06 M in the data set on MV-4-11 (Homo sapiens, MV4-11, 72 h); 1.18e-05 M in the data set on SUDHL10 [3] (setting [7]); 0.00875 µM against MCL-1; 6.3e-06 M in the data set on SUDHL5 [4]. Besides, the figures for the EC50 in the data set on SUDHL5 [2] and in the data set on SUDHL10 [5] were 10.2 µM and 11.3 µM, respectively.

For `CCc1nn(C)c2c1-c1c(C)ccc3c(CCCOc4cccc5cc(F)ccc45)c(C(=O)O)n(c13)CCCCOC2` (single isomer, unassigned) [Example 268, (−)-3-ethyl-7-{3-[(6-fluoronaphthalen-1-yl)oxy]propyl}-1,4-dimethyl-1,10,11,12,13,15-hexahydropyrazolo[4′,3′:9,10][1,6]oxazacycloundecino[8,7,6-hi]indole-8-carboxylic Acid], the IC50 in the data set with A2780 was 2.29e-05 M; with SUDHL5 [1], 7.41e-06 M; in the data set on MV-4-11, 7.46e-06 M; in the data set with SUDHL10 [3] (setting [7]) it was over 3.3e-05 M; at MCL-1, 0.0407 µM; in the data set on SUDHL5 [4], over 3.3e-05 M. The EC50 with SUDHL5 [2] and with SUDHL10 [5] was over 33 µM throughout.

For `CCc1nn(C)c2c1-c1c(C)ccc3c(C(C)CCOc4cccc5ccccc45)c(C(=O)O)n(c13)CCCCOC2` (single isomer, unassigned) [Example 272, 3-ethyl-1,4-dimethyl-7-[4-(naphthalen-1-yloxy)butan-2-yl]-1,10,11,12,13,15-hexahydropyrazolo[4′,3′:9,10][1,6]oxazacycloundecino[8,7,6-hi]indole-8-carboxylic Acid], the IC50 is 7.15e-06 M in the data set with A2780; 2.76e-06 M with SUDHL5 [1] (Homo sapiens, SU-DHL-5, 72 h); 4.89e-06 M in the data set with MV-4-11 (Homo sapiens, MV4-11, 72 h); 2.5e-05 M in the data set with SUDHL10 [3] (setting [7]); 0.983 µM on MCL-1; over 3.3e-05 M in the data set on SUDHL5 [4]. Besides, the EC50 in the data set with SUDHL5 [2] was over 33 µM; in the data set on SUDHL10 [5] (Homo sapiens, SU-DHL10, 3 h) it was 23.8 µM.
